Test results: patent US20250051403A1, “ANTIMICROBIAL PEPTIDES, VARIANTS AND CHEMICAL ANALOGUES THEREOF AND THEIR USES” (priority 2021, published 2025)
In brackets after ≈: the same amount, converted by molar mass. Positions of bridges follow the written chain, without caps; N, C: chain ends. Residues, ends and D or L forms follow the SMILES beside them.

Legend:
[1] = tested on: Mycobacterium tuberculosis mc^26230

SMILES	MIC (Vibrio alginolyticus) [µM]	MIC (M. smegmatis mc^2155) [µM]	V. alginolyticus MIC (Vibrio alginolyticus) [µM]	M. tuberculosis mc^26230 MIC [1] [µM]	M. smegmatis mc^2155 MIC (M. smegmatis mc^2155) [µM]	P. aeruginosa MIC (P. aeruginosa) [µM]
CC[C@H](C)[C@H](NC(=O)[C@H](CCCNC(=N)N)NC(=O)[C@@H](NC(=O)[C@H](CS)NC(=O)[C@@H](NC(=O)[C@@H](N)CCCNC(=N)N)C(C)C)C(C)C)C(=O)N[C@@H](CS)C(=O)N[C@@H](CCCNC(=N)N)C(=O)N[C@@H](CC(N)=O)C(=O)NCC(=O)N[C@@H](CCCNC(=N)N)C(=O)N[C@@H](CS)C(=O)N[C@@H](Cc1ccc(O)cc1)C(=O)N[C@@H](CCCNC(=N)N)C(=O)N[C@@H](CCCNC(=N)N)C(=O)N[C@@H](CS)C(=O)N[C@@H](Cc1c[nH]c2ccccc12)C(=O)N[C@@H](CC(N)=O)C(=O)N[C@H](C(=O)O)[C@@H](C)O [Linear unfolded analogue of Michelicin] (H-RVCVRICRNGRCYRRCWNT-OH; N-terminus and C-terminus assumed)	0.625 (≈ 1.51 µg/mL)	1.25 (≈ 3.02 µg/mL)	–	–	–	–
CC(C)[C@@H]1NC(=O)[C@H](CCCNC(=N)N)NC(=O)[C@H](C(C)C)NC(=O)[C@@H](NC(=O)[C@@H](NC(=O)[C@@H](N)CCCNC(=N)N)C(C)C)CSSC[C@@H](C(=O)N[C@@H](Cc2c[nH]c3ccccc23)C(=O)N[C@@H](CC(N)=O)C(=O)N[C@H](C(=O)O)[C@@H](C)O)NC(=O)[C@H](CCCNC(=N)N)NC(=O)[C@H](CCCNC(=N)N)NC(=O)[C@H](Cc2ccc(O)cc2)NC(=O)[C@@H]2CSSC[C@H](NC1=O)C(=O)N[C@@H](CCCNC(=N)N)C(=O)N[C@@H](CC(N)=O)C(=O)NCC(=O)N[C@@H](CCCNC(=N)N)C(=O)N2 [V1, RVC1VRVC2RNGRC3YRRC4WNT] (H-RVCVRVCRNGRCYRRCWNT-OH; disulfide 3-16, 7-12; N-terminus and C-terminus assumed)	–	–	0.125 to 0.312	29.8 to 30.2	1.15 to 4.21	2.5 to 5
CC[C@H](C)[C@@H]1NC(=O)[C@@H]2CSSC[C@H](NC(=O)[C@H](C(C)C)NC(=O)[C@H](CCCNC(=N)N)NC(=O)[C@H](C(C)C)NC(=O)[C@@H](NC(=O)[C@H](Cc3ccccc3)NC(=O)[C@@H](N)CCCNC(=N)N)CSSC[C@@H](C(=O)N[C@@H](Cc3c[nH]c4ccccc34)C(=O)N[C@@H](CC(N)=O)C(=O)N[C@H](C(=O)O)[C@@H](C)O)NC(=O)[C@H](CCCCN)NC(=O)[C@H](CCSC)NC1=O)C(=O)N[C@@H](CCCNC(=N)N)C(=O)N[C@@H](CC(N)=O)C(=O)NCC(=O)N[C@@H](CCCNC(=N)N)C(=O)N2 [V2, RFC1VRVC2RNGRC3IMKC4WNT] (H-RFCVRVCRNGRCIMKCWNT-OH; disulfide 3-16, 7-12; N-terminus and C-terminus assumed)	–	–	0.312 to 0.625	19.7 to 30.0	0.72 to 2.95	2.5 to 5
CC[C@H](C)[C@@H]1NC(=O)[C@@H]2CSSC[C@H](NC(=O)[C@H](C(C)C)NC(=O)[C@H](CCCNC(=N)N)NC(=O)[C@H](C(C)C)NC(=O)[C@@H](NC(=O)[C@@H](NC(=O)[C@@H](N)CCCNC(=N)N)[C@@H](C)CC)CSSC[C@@H](C(=O)N[C@@H](Cc3c[nH]c4ccccc34)C(=O)N[C@@H](CC(N)=O)C(=O)N[C@H](C(=O)O)[C@@H](C)O)NC(=O)[C@H](CCCCN)NC(=O)[C@H](CCSC)NC1=O)C(=O)N[C@@H](CCCNC(=N)N)C(=O)N[C@@H](CC(N)=O)C(=O)NCC(=O)N[C@@H](CCCNC(=N)N)C(=O)N2 [V3, RIC1VRVC2RNGRC3IMKC4WNT] (H-RICVRVCRNGRCIMKCWNT-OH; disulfide 3-16, 7-12; N-terminus and C-terminus assumed)	–	–	0.625 to 1.25	22.9 to 29.6	0.64 to 4.66	2.5 to 5
CC[C@H](C)[C@H](NC(=O)[C@@H](N)CCCNC(=N)N)C(=O)N[C@H]1CSSC[C@@H](C(=O)N[C@@H](Cc2c[nH]c3ccccc23)C(=O)N[C@@H](CC(N)=O)C(=O)N[C@H](C(=O)O)[C@@H](C)O)NC(=O)[C@H](CCCCN)NC(=O)[C@H](CCSC)NC(=O)[C@H](Cc2ccccc2)NC(=O)[C@@H]2CSSC[C@H](NC(=O)[C@H](C(C)C)NC(=O)[C@H](CCCNC(=N)N)NC(=O)[C@H](C(C)C)NC1=O)C(=O)N[C@@H](CCCNC(=N)N)C(=O)N[C@@H](CC(N)=O)C(=O)NCC(=O)N[C@@H](Cc1ccccc1)C(=O)N2 [V4, RIC1VRVC2RNGFC3FMKC4WNT] (H-RICVRVCRNGFCFMKCWNT-OH; disulfide 3-16, 7-12; N-terminus and C-terminus assumed)	–	–	0.312 to 0.625	7.5 to 7.9	1.49 to 4.15	2.5 to 5
CC[C@H](C)[C@@H]1NC(=O)[C@H](Cc2ccccc2)NC(=O)[C@H](CC(C)C)NC(=O)[C@@H]2CSSC[C@H](NC(=O)[C@H](CCCNC(=N)N)NC1=O)C(=O)N[C@@H](Cc1ccccc1)C(=O)N[C@@H](CCSC)C(=O)N[C@@H](CCCCN)C(=O)N[C@H](C(=O)N[C@@H](Cc1c[nH]c3ccccc13)C(=O)N[C@@H](CC(N)=O)C(=O)N[C@H](C(=O)O)[C@@H](C)O)CSSC[C@H](NC(=O)[C@H](Cc1ccccc1)NC(=O)[C@@H](N)CCCNC(=N)N)C(=O)N[C@@H](C(C)C)C(=O)N[C@@H](CCCNC(=N)N)C(=O)N[C@@H](C(C)C)C(=O)N2 [V5, RFC1VRVC2LFIRC3FMKC4WNT] (H-RFCVRVCLFIRCFMKCWNT-OH; disulfide 3-16, 7-12; N-terminus and C-terminus assumed)	–	–	0.625 to 1.25	5.3 to 7.9	3.06 to 8.40	>20
CC[C@H](C)[C@H](NC(=O)[C@@H](N)CCCNC(=N)N)C(=O)N[C@H]1CSSC[C@@H](C(=O)N[C@@H](Cc2c[nH]c3ccccc23)C(=O)N[C@@H](CC(N)=O)C(=O)N[C@H](C(=O)O)[C@@H](C)O)NC(=O)[C@H](CCCCN)NC(=O)[C@H](CCSC)NC(=O)[C@H](Cc2ccccc2)NC(=O)[C@@H]2CSSC[C@H](NC(=O)[C@H](C(C)C)NC(=O)[C@H](CCCNC(=N)N)NC(=O)[C@H](C(C)C)NC1=O)C(=O)N[C@@H](CCCNC(=N)N)C(=O)N[C@@H](CC(N)=O)C(=O)NCC(=O)N[C@@H](CCCNC(=N)N)C(=O)N2 [V6, RIC1VRVC2RNGRC3FMKC4WNT] (H-RICVRVCRNGRCFMKCWNT-OH; disulfide 3-16, 7-12; N-terminus and C-terminus assumed)	–	–	0.125 to 0.312	>30	1.27 to 2.96	>5
CSCC[C@@H]1NC(=O)[C@H](Cc2ccccc2)NC(=O)[C@@H]2CSSC[C@H](NC(=O)[C@H](C(C)C)NC(=O)[C@H](CCCNC(=N)N)NC(=O)[C@H](C(C)C)NC(=O)[C@@H](NC(=O)[C@@H](NC(=O)[C@H](CO)NC(=O)[C@@H](NC(=O)[C@H](C)NC(=O)[C@H](CCCCN)NC(=O)[C@@H](N)CCCNC(=N)N)C(C)C)[C@@H](C)O)CSSC[C@@H](C(=O)N[C@@H](Cc3c[nH]c4ccccc34)C(=O)N[C@@H](CC(N)=O)C(=O)N[C@H](C(=O)O)[C@@H](C)O)NC(=O)[C@H](CCCCN)NC1=O)C(=O)N[C@@H](CCCNC(=N)N)C(=O)N[C@@H](CC(N)=O)C(=O)NCC(=O)N[C@@H](Cc1ccccc1)C(=O)N2 [V7, RKAVSTC2VRVC3RNGFC4FMKCWNT] (H-RKAVSTCVRVCRNGFCFMKCWNT-OH; disulfide 7-20, 11-16 (inferred); N-terminus and C-terminus assumed)	–	–	0.125 to 0.312	>30	9.22 to 13.1	2.5 to 5
CC[C@H](C)[C@@H]1NC(=O)[C@H](CCCNC(=N)N)NC(=O)[C@H](C(C)C)NC(=O)[C@@H](NC(=O)[C@@H](NC(=O)[C@@H](N)CCCNC(=N)N)C(C)C)CSSC[C@@H](C(=O)N[C@@H](Cc2c[nH]c3ccccc23)C(=O)N[C@@H](CC(N)=O)C(=O)N[C@H](C(=O)O)[C@@H](C)O)NC(=O)[C@H](CCCCN)NC(=O)[C@H](CCSC)NC(=O)[C@H](Cc2ccccc2)NC(=O)[C@@H]2CSSC[C@H](NC1=O)C(=O)N[C@@H](CCCNC(=N)N)C(=O)N[C@@H](CC(N)=O)C(=O)NCC(=O)N[C@@H](Cc1ccccc1)C(=O)N2 [V8, RVC1VRIC2RNGFC3FMKC4WNT] (H-RVCVRICRNGFCFMKCWNT-OH; disulfide 3-16, 7-12; N-terminus and C-terminus assumed)	–	–	0.125 to 0.312	7.3 to 11.9	0.72 to 3.92	1.25 to 2.5
CSCC[C@@H]1NC(=O)[C@H](Cc2ccccc2)NC(=O)[C@@H]2CSSC[C@H](NC(=O)[C@H](C(C)C)NC(=O)[C@H](CCCNC(=N)N)NC(=O)[C@H](C(C)C)NC(=O)[C@@H](NC(=O)[C@@H](NC(=O)[C@@H](N)CCCNC(=N)N)C(C)C)CSSC[C@@H](C(=O)N[C@@H](Cc3c[nH]c4ccccc34)C(=O)N[C@@H](CC(N)=O)C(=O)N[C@H](C(=O)O)[C@@H](C)O)NC(=O)[C@H](CCCCN)NC1=O)C(=O)N[C@@H](CCCNC(=N)N)C(=O)N[C@@H](CC(N)=O)C(=O)NCC(=O)N[C@@H](Cc1ccccc1)C(=O)N2 [V9, RVC1VRVC2RNGFC3FMKC4WNT] (H-RVCVRVCRNGFCFMKCWNT-OH; disulfide 3-16, 7-12; N-terminus and C-terminus assumed)	–	–	0.125 to 0.312	5.1 to 9.1	1.02 to 3.31	1.25 to 2.5
